Molecular target: T1, 41O1_SusD-like (uncultured Bacteroides sp., UniProt Z9V4V4YR65)
T1 construct: mature protein without predicted lipoprotein signal peptide, N-terminal 6-His tag (pET-28a(+)), E. coli BL21(DE3), codon-optimized gene, 57 kDa, monomer fraction used
T1 sequence (Z9V4V4YR65 22-505): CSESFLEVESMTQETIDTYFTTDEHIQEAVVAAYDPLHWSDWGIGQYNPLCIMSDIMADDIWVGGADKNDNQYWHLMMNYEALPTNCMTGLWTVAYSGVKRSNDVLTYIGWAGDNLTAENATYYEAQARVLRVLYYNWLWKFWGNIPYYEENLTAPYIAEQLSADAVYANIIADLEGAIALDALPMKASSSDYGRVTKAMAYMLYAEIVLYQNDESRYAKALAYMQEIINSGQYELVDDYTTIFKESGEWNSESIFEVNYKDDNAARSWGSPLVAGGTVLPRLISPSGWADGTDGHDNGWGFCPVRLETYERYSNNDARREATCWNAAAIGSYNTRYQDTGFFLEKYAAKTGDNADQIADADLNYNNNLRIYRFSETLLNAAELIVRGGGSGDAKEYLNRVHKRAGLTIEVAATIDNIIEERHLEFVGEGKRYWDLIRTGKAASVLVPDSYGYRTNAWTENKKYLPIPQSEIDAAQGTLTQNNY
Assay: thermal shift, Tycho NT.[…] intrinsic fluorescence
Assay type: binding
Details: 0.5% (w/v) ligand, 10 µM protein, 20 mM Tris-HCl, 150 mM NaCl, pH 7.4

## OC[C@H]1O[C@@H](O[C@H]2[C@H](O)[C@@H](O)[C@H](O[C@H]3[C@H](O)[C@@H](O)C(O)O[C@@H]3CO)O[C@@H]2CO)[C@H](O)[C@@H](O)[C@@H]1O (some centres unmarked) [Cellotriose]
  ∆T°C: 1.2 °C

## OC[C@H]1O[C@@H](O[C@@H]2[C@@H](O)[C@H](O[C@H]3[C@H](O)[C@@H](CO)OC(O)[C@@H]3O)O[C@H](CO)[C@H]2O)[C@H](O)[C@@H](O)[C@@H]1O (some centres unmarked) [Laminaritriose]
  ∆T°C: 4.7 °C
